From patent EP0429372A1, “2-Azolyl nicotinate derivatives as herbicides” (RHONE-POULENC AGROCHIMIE, priority 1989, dated 1991)

Assays:
Format in all cases: in vivo
[1] = test system: Ipomea purpurea; experiment: Example B: post-emergence herbicidal application, pot test
Excerpt: (§1) Dans des pots de 7 x 7 x 8 cm remplis de terre agricole légère, on sème un nombre de graines déterminé en fonction de l'espèce végétale et de la grosseur de la graine.
(§2) On recouvre ensuite les graines d'une couche de terre d'environ 3 mm d'épaisseur et on laisse germer la graine jusqu'à ce qu'elle donne naissance à une plantule au stade convenable. Le stade de traitement pour les graminées est le stade "deuxième feuille en formation ". Le stade de traitement pour les dicotylédones, est le stade "cotylédons étalés, première feuille vraie en développement".
(§3) Les pots sont alors traités par pulvérisation de bouillie en quantité correspondant à une dose volumique d'application de 500 l/ha et contenant la matière active à la concentration désirée.
(§4) La bouille a été préparée de la même manière qu'à l'exemple A.
(§5) Les pots traités sont ensuite placés dans des bacs destinés à recevoir l'eau d'arrosage, en subirrigation, et maintenus pendant 24 jours à température ambiante sous 70 % d'humidité relative.
(§6) Au bout de 24 jours, on mesure un pourcentage (D) de destruction du nombre de pieds dans le pot traité par rapport au nombre de plantes dans les pots non traités (témoin). On mesure, sur les plantes traitées restantes, le pourcentage de réduction de taille (RT) par rapport aux plantes témoin.
(§7) Le pourcentage du volume foliaire non détruit par le produit est donc donné par la formule : [formula]
(§8) Cette valeur A est transformée en notation de 0 à 5 selon l'échelle suivante :
(§9) Les résultats obtenus sont présentés après le tableau A pour des doses d'application de 4000 g/ha.

[2] = test system: Echinochloa crusgalli; experiment: as above
Excerpt: as §1, §2, §3, §4, §5, §6, §7, §8, §9

[3] = test system: Digitaria sanguinalis; experiment: as above
Excerpt: as §1, §2, §3, §4, §5, §6, §7, §8, §9

[4] = test system: Solanum nigrum; experiment: as above
Excerpt: as §1, §2, §3, §4, §5, §6, §7, §8, §9

[5] = test system: Sinapis alba; experiment: as above
Excerpt: as §1, §2, §3, §4, §5, §6, §7, §8, §9

[6] = test system: Lolium multiflorum; experiment: as above
Excerpt: as §1, §2, §3, §4, §5, §6, §7, §8, §9

[7] = test system: Ipomea pupurea; experiment: Example C: selectivity test in major crops, post-emergence application; settings: weed, post-emergence, dose 1 kg/ha, 24 days, score 0-5
Excerpt: as §1
(§10) On recouvre ensuite les graines d'une couche de terre d'environ 3 mm d'épaisseur et on laisse germer la graine jusqu'à ce qu'elle donne naissance à une plantule au stade convenable. Le stade de traitement pour les graminées est le stade "deuxième feuille en formation". Le stade de traitement pour les dicotylédones, est le stade "cotylédons étalés, première feuille vraie en développement".
as §3
(§11) La bouillie a été préparée de la même manière qu'à l'exemple A.
as §5, §6
(§12) Le pourcentage de volume foliaire non détruit par le produit est donc donné par la formule : [formula]
as §8
(§13) Ainsi, un produit est jugé comme sélectif vis à vis de la culture lorsque la valeur A notée est de 0 ou 1.
(§14) Les résultats obtenus sont présentés dans l'exemple C pour des doses d'application comprises entre 0,5 et 4 kg de matière active par hectare selon les produits.

[8] = test system: Viola tricolor; experiment: as above; settings: weed, dose 1 kg/ha, 24 days, score 0-5
Excerpt: as §1, §10, §3, §11, §5, §6, §12, §8, §13, §14

[9] = test system: Solanum nigrum; experiment: as above; settings: weed, dose 1 kg/ha, 24 days, score 0-5
Excerpt: as §1, §10, §3, §11, §5, §6, §12, §8, §13, §14

[10] = test system: Xanthium pennsylvanicum; experiment: as above; settings: weed, dose 1 kg/ha, 24 days, score 0-5
Excerpt: as §1, §10, §3, §11, §5, §6, §12, §8, §13, §14

[11] = test system: Sesbania exaltata; experiment: as above; settings: weed, dose 1 kg/ha, 24 days, score 0-5
Excerpt: as §1, §10, §3, §11, §5, §6, §12, §8, §13, §14

[12] = 4 kg/ha, rated after 24 days, score 0-5 from % leaf volume not destroyed

Compound	ACTIVITE DE POST-LEVEE IPO ([1]; 4000 g/ha, 576 h)	ACTIVITE DE POST-LEVEE ECH ([2]; 4000 g/ha, 576 h)	ACTIVITE DE POST-LEVEE DIG ([3]; 4000 g/ha, 576 h)	ACTIVITE DE POST-LEVEE SOL ([4]; 4000 g/ha, 576 h)	ACTIVITE DE POST-LEVEE SIN ([5]; 4000 g/ha, 576 h)	ACTIVITE DE POST-LEVEE LOL ([6]; 4000 g/ha, 576 h)	ACTIVITE DE POST-LEVEE IPO [1, 12]	ACTIVITE DE POST-LEVEE ECH [2, 12]	ACTIVITE DE POST-LEVEE SIN [5, 12]	ACTIVITE DE POST-LEVEE LOL [6, 12]	ACTIVITE HERBICIDE DE POST LEVEE I P O [7]	ACTIVITE HERBICIDE DE POST LEVEE V I O [8]	ACTIVITE HERBICIDE DE POST LEVEE S O L [9]	ACTIVITE HERBICIDE DE POST LEVEE X A N [10]	ACTIVITE HERBICIDE DE POST LEVEE S E S [11]	ACTIVITE DE POST-LEVEE DIG [3, 12]	ACTIVITE DE POST-LEVEE SOL [4, 12]
CN(C)S(=O)(=O)n1nc(-c2ccc(Cl)cc2Cl)nc1-c1ncccc1C(=O)O [compound 3]	2 (50 à 70)	0 (90 à 100)	0 (90 à 100)	3 (30 à 50)	2 (50 à 70)	0 (90 à 100)											
CCN(CC)S(=O)(=O)n1nc(-c2ccccc2)nc1-c1ncccc1C(=O)O [compound 4]	2 (50 à 70)	3 (30 à 50)	3 (30 à 50)	1 (70 à 90)	2 (50 à 70)												
CN(C)S(=O)(=O)n1nc(C(C)(C)C)nc1-c1ncccc1C(=O)O [compound 12]	3 (30 à 50)	0 (90 à 100)	0 (90 à 100)	4 (10 à 30)	4 (10 à 30)	0 (90 à 100)											
O=C(O)c1cccnc1-c1nc(-c2ccccc2)nn1S(=O)(=O)N1CCCC1 [compound 15]	2 (50 à 70)	3 (30 à 50)	3 (30 à 50)	1 (70 à 90)	1 (70 à 90)	3 (30 à 50)											
COC(=O)c1cccnc1-c1nc(-c2ccccc2)nn1S(=O)(=O)c1ccccc1Cl [compound 24]	3 (30 à 50)	0 (90 à 100)	0 (90 à 100)	3 (30 à 50)	3 (30 à 50)	0 (90 à 100)											
O=C(O)c1cccnc1-c1n[nH]c(-c2ccccc2)n1 [compound 42, 3 - (3 - carboxy 2 - pyridyl) 5 - phényl 1,2,4 - triazole]							4 (10 à 30)	2 (50 à 70)	4 (10 à 30)	1 (70 à 90)							
O=C(O)c1cccnc1-c1n[nH]c(-c2ccc(Cl)cc2Cl)n1 [compound 43]	4 (10 à 30)	4 (10 à 30)	3 (30 à 50)	3 (30 à 50)	5 (O à 10)	3 (30 à 50)											
O=C(O)c1cccnc1-c1n[nH]c(-c2sc(Cl)c(Cl)c2Cl)n1 [compound 44]	3 (30 à 50)	2 (50 à 70)	1 (70 à 90)	1 (70 à 90)	4 (10 à 30)	0 (90 à 100)											
O=C(O)c1cccnc1-c1n[nH]c(Cc2ccccc2)n1 [compound 45]	3 (30 à 50)	3 (30 à 50)	3 (30 à 50)	3 (30 à 50)	2 (50 à 70)	2 (50 à 70)											
O=C(O)c1cccnc1-c1n[nH]c(-c2cccc(Cl)c2)n1 [compound 48]	3 (30 à 50)	3 (30 à 50)	3 (30 à 50)	1 (70 à 90)	2 (50 à 70)	2 (50 à 70)											
O=C(O)c1cccnc1-c1n[nH]c(-c2cc(Cl)cc(Cl)c2)n1 [compound 50]	3 (30 à 50)	3 (30 à 50)	2 (50 à 70)	0 (90 à 100)	0 (90 à 100)	0 (90 à 100)											
Cc1ccccc1-c1nc(-c2ncccc2C(=O)O)n[nH]1 [compound 54]	0 (90 à 100)	2 (50 à 70)	3 (30 à 50)	3 (30 à 50)	1 (70 à 90)	3 (30 à 50)											
O=C(O)c1cccnc1-c1n[nH]c(C=Cc2ccccc2)n1 [compound 67]	3 (30 à 50)	0 (90 à 100)	2 (50 à 70)	2 (50 à 70)	2 (50 à 70)	0 (90 à 100)											
O=C(O)c1cccnc1-c1n[nH]c(-c2cc(Cl)ccc2Cl)n1 [compound 73]	3 (30 à 50)	3 (30 à 50)	2 (50 à 70)	3 (30 à 50)	3 (30 à 50)	2 (50 à 70)											
CN(C)S(=O)(=O)n1c(-c2ncccc2C(=O)O)nc2ccccc21 [compound 75, 2-(1-N,N diméthylsulfamoyl 2-benzimidazolyl) 3-carboxy pyridine]							4 (10 à 30)	0 (90 à 100)	5 (O à 10)		5 (O à 10)	4 (10 à 30)	5 (O à 10)	5 (O à 10)	5 (O à 10)	0 (90 à 100)	5 (O à 10)
CN(C)S(=O)(=O)n1c(-c2ncccc2C(=O)O)nc2ccccc21 [compound 121]	4 (10 à 30)	3 (30 à 50)	0 (90 à 100)	5 (O à 10)	5 (O à 10)												
